{
  "source": "patent US20220169639A1",
  "about": "(priority 2018, published 2022)",
  "note": "pIC50: −log10 of the molar value.",
  "data": [
    {"test_system": "HBeAg (surrogate marker for cccDNA) in HepDES19 cells", "test": "Engineered HepDES19 primary screen assay (HBeAg ELISA)", "assay_type": "cell-based, HBV", "conditions": "Hepatitis B virus, 120 h, HBeAg in culture supernatant, 5 days incubation, read-out: IC50 (HepDES19 primary screen assay, inhibition of extracellular HBeAg level)", "outline": "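HepDES19 cells pre-induced by Tet withdrawal for 8 days, frozen, then seeded and dosed after 24 h with half-log compound dilutions (1% DMSO final). After 5 days at 37 °C, HBeAg measured by ELISA and viability by CCK-8; IC50 from 4-parameter logistic fit.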", "values": [
      {"smiles": "O=C(NS(=O)(=O)C1CC1)[C@@H]1CCN(CCCOc2cc(C(F)(F)F)ccc2-c2cc(=O)c3cccc(Cl)c3o2)C1", "note": "[Example 067, (3R)-1-[3-[2-(8-chloro-4-oxo-chromen-2-yl)-5-(trifluoromethyl)phenoxy]propyl]-N-cyclopropylsulfonyl-pyrrolidine-3-carboxamide]", "pIC50": 5.08},
      {"smiles": "O=C(O)C1CC(=O)N(CCCOc2cc(Br)ccc2-c2cc(=O)c3cccc(Cl)c3o2)C1", "note": "(centres unmarked) [Example 169, 1-[3-[5-bromo-2-(8-chloro-4-oxo-chromen-2-yl)phenoxy]propyl]-5-oxo-pyrrolidine-3-carboxylic acid]", "pIC50": 6.00},
      {"smiles": "CS(=O)(=O)CCNCCCOc1cc(C(F)(F)F)ccc1-c1cc(=O)c2cccc(Cl)c2o1", "note": "[Example 079, 8-chloro-2-[2-[3-(2-methylsulfonylethylamino)propoxy]-4-(trifluoromethyl)phenyl]chromen-4-one]", "pIC50": 6.11},
      {"smiles": "O=c1cc(-c2ccc(C(F)(F)F)cc2OCCCNS(=O)(=O)c2ccccc2)oc2c(Cl)cccc12", "note": "[Example 097]", "pIC50": 5.94},
      {"smiles": "O=C(O)C1CN(CCOc2cc(C(F)(F)F)ccc2-c2cc(=O)c3cccc(Cl)c3o2)CCO1", "note": "(centres unmarked) [Example 035, 4-[2-[2-(8-chloro-4-oxo-chromen-2-yl)-5-(trifluoromethyl)phenoxy]ethyl]morpholine-2-carboxylic acid]", "pIC50": 5.62},
      {"smiles": "CC(C)[C@@H](NCCCOc1cc(C(F)(F)F)ccc1-c1cc(=O)c2cccc(Cl)c2o1)C(=O)O", "note": "[Example 009, (2R)-2-[3-[2-(8-chloro-4-oxo-chromen-2-yl)-5-(trifluoromethyl)phenoxy]propylamino]-3-methyl-butanoic acid]", "pIC50": 5.13},
      {"smiles": "O=C(O)C1CCN(CCOc2ccccc2-c2cc(=O)c3cccc(Cl)c3o2)CC1", "note": "[Example 029, 1-[2-[2-(8-chloro-4-oxo-chromen-2-yl)phenoxy]ethyl]piperidine-4-carboxylic acid]", "pIC50": 5.73},
      {"smiles": "O=c1cc(-c2ccc(C(F)(F)F)cc2OCCCN([C@H]2C[C@@H](C(=O)O)C2)S(=O)(=O)c2ccccc2)oc2c(Cl)cccc12", "note": "[Example 141]", "pIC50": 6.46},
      {"smiles": "O=C(NCCCOc1cc(C(F)(F)F)ccc1-c1cc(=O)c2cccc(Cl)c2o1)C(=O)NS(=O)(=O)C1CC1", "note": "[Example 149, N-[3-[2-(8-chloro-4-oxo-chromen-2-yl)-5-(trifluoromethyl)phenoxy]propyl]-N′-cyclopropylsulfonyl-oxamide]", "pIC50": 5.06},
      {"smiles": "Cc1cc(-c2cc(=O)c3cccc(Cl)c3o2)c(OCCN2CCC[C@@H]2C(=O)O)cc1Br", "note": "[Example 044, (2R)-1-[2-[5-bromo-2-(8-chloro-4-oxo-chromen-2-yl)-4-methyl-phenoxy]ethyl]pyrrolidine-2-carboxylic acid]", "pIC50": 5.32},
      {"smiles": "O=c1cc(-c2ccc(Br)cc2OCCOCCN2CCOCC2)oc2c(Cl)cccc12", "note": "[Example 090, 2-[4-bromo-2-[2-(2-morpholinoethoxy)ethoxy]phenyl]-8-chloro-chromen-4-one]", "pIC50": 5.89},
      {"smiles": "COc1cc(OCCNC(=O)C(=O)O)c(-c2cc(=O)c3cccc(Cl)c3o2)cc1Br", "note": "[Example 122]", "pIC50": 5.11},
      {"smiles": "Cc1ccc(-c2cc(=O)c3cccc(Cl)c3o2)c(OCCN(C(=O)C(=O)O)C2CC2)c1", "note": "[Example 135, 2-[2-[2-(8-chloro-4-oxo-chromen-2-yl)-5-methyl-phenoxy]ethyl-cyclopropyl-amino]-2-oxo-acetic acid]", "pIC50": 6.68},
      {"smiles": "O=C(NS(=O)(=O)C1CC1)C1CCCN1CCOc1cc(C(F)(F)F)ccc1-c1cc(=O)c2cccc(Cl)c2o1", "note": "(centres unmarked) [Example 072, 1-[2-[2-(8-chloro-4-oxo-chromen-2-yl)-5-(trifluoromethyl)phenoxy]ethyl]-N-cyclopropylsulfonyl-pyrrolidine-2-carboxamide]", "pIC50": 5.54},
      {"smiles": "CCOC(=O)C(=O)NCCOc1cc(C)ccc1-c1cc(=O)c2cc(OC)cc(Cl)c2o1", "note": "[Example 103]", "pIC50": 5.44},
      {"smiles": "O=C(O)CN(CCCOc1cc(C(F)(F)F)ccc1-c1cc(=O)c2cccc(Cl)c2o1)S(=O)(=O)c1ccccc1", "note": "[Example 143]", "pIC50": 5.62},
      {"smiles": "CCOC(=O)C(=O)NCCOc1cc(OC)c(Br)cc1-c1cc(=O)c2cccc(Cl)c2o1", "note": "[Example 102]", "pIC50": 5.54}
    ]}
  ]
}
